# Measured values published in ChEMBL document CHEMBL1649180, “Early postpartum pharmacokinetics of lopinavir initiated intrapartum in Thai women” (Antimicrob Agents Chemother, 2009).
# Tests used:
# [1] = Cmax in HIV-infected Thai pregnant women at 400 mg, po bid initiated intrapartum in combination with 100 mg, po bid ritonavir measured within 72 hrs postpartum; type: ADME, organism-based; design: dose 400 mg, route oral; details: female, human, in vivo
# [2] = AUC (0 to 12 hrs) in HIV-infected Thai pregnant women at 400 mg, po bid initiated intrapartum in combination with 100 mg, po bid ritonavir measured within 72 hrs postpartum; type: ADME, organism-based; design: time < 12 hr, dose 400 mg, route oral; details: female, human, plasma
# [3] = Tmax in HIV-infected Thai pregnant women at 400 mg, po bid initiated intrapartum in combination with 100 mg, po bid ritonavir measured within 72 hrs postpartum; type: ADME, organism-based; details: female, human, in vivo
# [4] = Drug level in HIV-infected Thai pregnant women serum at 400 mg, po bid initiated intrapartum in combination with 100 mg, po bid ritonavir measured 2 hrs post last dose; type: ADME, organism-based; details: female, human, read-out: Drug uptake
# [5] = Drug level in HIV-infected Thai pregnant women serum at 400 mg, po bid initiated intrapartum in combination with 100 mg, po bid ritonavir measured 4 hrs post last dose; type: ADME, organism-based; details: female, human, read-out: Drug uptake
# [6] = Drug level in HIV-infected Thai pregnant women serum at 400 mg, po bid initiated intrapartum in combination with 100 mg, po bid ritonavir measured 12 hrs post last dose; type: ADME, organism-based; details: female, human, read-out: Drug uptake
# [7] = tested on: Serum; assay: Drug level in HIV-infected Thai pregnant women serum before intrapartum initiation of 400 mg, po bid in combination with 100 mg, po bid ritonavir; type: ADME, organism-based; details: human, in vivo
# [8] = Drug level in HIV-infected Thai pregnant women serum at 400 mg, po bid initiated intrapartum administered for 30 days in combination with 100 mg, po bid ritonavir measured before administering last dose; type: ADME, organism-based; details: female, human, read-out: Drug uptake
# [9] = Drug level in HIV-infected Thai pregnant women serum at 400 mg, po bid initiated intrapartum administered for 30 days in combination with 100 mg, po bid ritonavir measured 2 hrs post last dose; type: ADME, organism-based; details: female, human, read-out: Drug uptake
# [10] = Drug level in HIV-infected Thai pregnant women serum at 400 mg, po bid initiated intrapartum administered for 30 days in combination with 100 mg, po bid ritonavir measured 4 hrs post last dose; type: ADME, organism-based; details: female, human, read-out: Drug uptake
# [11] = tested on: Serum; assay: Ratio of drug level before intrapartum initiation to 30 days pre-last dose of HIV-infected Thai pregnant women serum at 400 mg, po bid in combination with 100 mg, po bid ritonavir; type: ADME, organism-based; details: human, in vivo, 720 h
# [12] = tested on: Serum; assay: Ratio of drug level in 2 hrs to 30 days post last dose of HIV-infected Thai pregnant women serum at 400 mg, po bid initiated intrapartum in combination with 100 mg, po bid ritonavir; type: ADME, organism-based; details: human, in vivo
# [13] = tested on: Serum; assay: Ratio of drug level in 4 hrs to 30 days post last dose of HIV-infected Thai pregnant women serum at 400 mg, po bid initiated intrapartum in combination with 100 mg, po bid ritonavir; type: ADME, organism-based; details: human, in vivo
# [14] = tested on: Homo sapiens; assay: Toxicity in HIV-infected Thai pregnant women assessed as adverse effect at 400 mg, po bid initiated intrapartum administered for 30 days in combination with 100 mg, po bid ritonavir; type: organism-based; details: in vivo, 720 h
# [15] = Cmax in HIV-infected Thai pregnant women at 100 mg, po bid initiated intrapartum in combination with 400 mg, po bid Lopinavir measured within 72 hrs postpartum; type: ADME, organism-based; design: dose 100 mg, route oral; details: female, human, in vivo
# [16] = AUC (0 to 12 hrs) in HIV-infected Thai pregnant women at 100 mg, po bid initiated intrapartum in combination with 400 mg, po bid Lopinavir measured within 72 hrs postpartum; type: ADME, organism-based; design: time < 12 hr, dose 100 mg, route oral; details: female, human, plasma
# [17] = Tmax in HIV-infected Thai pregnant women at 100 mg, po bid initiated intrapartum in combination with 400 mg, po bid Lopinavir measured within 72 hrs postpartum; type: ADME, organism-based; details: female, human, in vivo
# [18] = Drug level in HIV-infected Thai pregnant women serum at 100 mg, po bid initiated intrapartum in combination with 400 mg, po bid Lopinavir measured 2 hrs post last dose; type: ADME, organism-based; details: female, human, read-out: Drug uptake
# [19] = Drug level in HIV-infected Thai pregnant women serum at 100 mg, po bid initiated intrapartum in combination with 400 mg, po bid Lopinavir measured 4 hrs post last dose; type: ADME, organism-based; details: female, human, read-out: Drug uptake
# [20] = Drug level in HIV-infected Thai pregnant women serum at 100 mg, po bid initiated intrapartum in combination with 400 mg, po bid Lopinavir measured 12 hrs post last dose; type: ADME, organism-based; details: female, human, read-out: Drug uptake
# [21] = tested on: Serum; assay: Drug level in HIV-infected Thai pregnant women serum before intrapartum initiation of 100 mg, po bid in combination with 400 mg, po bid Lopinavir; type: ADME, organism-based; details: human, in vivo
# [22] = Drug level in HIV-infected Thai pregnant women serum at 100 mg, po bid initiated intrapartum administered for 30 days in combination with 400 mg, po bid Lopinavir measured before administering last dose; type: ADME, organism-based; details: female, human, read-out: Drug uptake
# [23] = Drug level in HIV-infected Thai pregnant women serum at 100 mg, po bid initiated intrapartum administered for 30 days in combination with 400 mg, po bid Lopinavir measured 2 hrs post last dose; type: ADME, organism-based; details: female, human, read-out: Drug uptake
# [24] = Drug level in HIV-infected Thai pregnant women serum at 100 mg, po bid initiated intrapartum administered for 30 days in combination with 400 mg, po bid Lopinavir measured 4 hrs post last dose; type: ADME, organism-based; details: female, human, read-out: Drug uptake
# [25] = tested on: Serum; assay: Ratio of drug level before intrapartum initiation to 30 days pre-last dose of HIV-infected Thai pregnant women serum at 100 mg, po bid in combination with 400 mg, po bid Lopinavir; type: ADME, organism-based; details: human, in vivo, 720 h
# [26] = tested on: Serum; assay: Ratio of drug level in 2 hrs to 30 days post last dose of HIV-infected Thai pregnant women serum at 100 mg, po bid initiated intrapartum in combination with 400 mg, po bid Lopinavir; type: ADME, organism-based; details: human, in vivo
# [27] = tested on: Serum; assay: Ratio of drug level in 4 hrs to 30 days post last dose of HIV-infected Thai pregnant women serum at 100 mg, po bid initiated intrapartum in combination with 400 mg, po bid Lopinavir; type: ADME, organism-based; details: human, in vivo
smiles,measurement,setting,value
Cc1cccc(C)c1OCC(=O)N[C@@H](Cc1ccccc1)[C@@H](O)C[C@H](Cc1ccccc1)NC(=O)[C@H](C(C)C)N1CCCNC1=O [LOPINAVIR],Cmax,[1],11200 ng/mL
same,AUC at 12 h,[2],99700 ng·h/mL
same,Tmax,[3],3.9 h
same,concentration at 2 h,[4],10500 ng/mL
same,concentration at 4 h,[5],10800 ng/mL
same,concentration at 12 h,[6],5180 ng/mL
same,Drug uptake,[7],6.08 µg/mL
same,concentration at 720 h,[8],9170 ng/mL
same,concentration at 2 h,[9],11700 ng/mL
same,concentration at 4 h,[10],13000 ng/mL
same,Drug uptake,[11],0.66
same,Drug uptake,[12],0.85
same,Drug uptake,[13],0.81
same,Activity,[14],Non-toxic
CC(C)c1nc(CN(C)C(=O)N[C@H](C(=O)N[C@@H](Cc2ccccc2)C[C@H](O)[C@H](Cc2ccccc2)NC(=O)OCc2cncs2)C(C)C)cs1 [RITONAVIR],Cmax,[15],600 ng/mL
same,AUC at 12 h,[16],4270 ng·h/mL
same,Tmax,[17],3.9 h
same,concentration at 2 h,[18],450 ng/mL
same,concentration at 4 h,[19],580 ng/mL
same,concentration at 12 h,[20],100 ng/mL
same,Drug uptake,[21],0.16 µg/mL
same,concentration at 720 h,[22],290 ng/mL
same,concentration at 2 h,[23],610 ng/mL
same,concentration at 4 h,[24],810 ng/mL
same,Drug uptake,[25],0.54
same,Drug uptake,[26],0.76
same,Drug uptake,[27],0.68
